A word on the IC50: it is the midpoint of a concentration-inhibition curve.

For this test, the system named is Tunicamycin induced ISR (ATF4 signal ratio between nucleus and cytoplasm) in wild-type HEK293 cells. The test is described as follows: HEK-ATF4 High Content Imaging assay. The format is cell-based. To be noted: Homo sapiens, prevention of Tunicamycin induced ISR, 6 h incubation, ATF4 immunofluorescence nucleus/cytoplasm ratio. As to the method: HEK-ATF4 High Content Imaging Assay
Example compounds were tested in the HEK-ATF4 High Content Imaging assay to assess their pharmacological potency to prevent Tunicamycin induced ISR. Wild-type HEK293 cells were plated in 384-well imaging assay plates at a density of 12,000 cells per well in growth medium (containing DMEM/F12, 10% FBS, 2 mM L-Glutamine, 100 U/mL Penicillin—100 μg/mL Streptomycin) and incubated at 37° C., 5% CO2. 24 h later, the medium was changed to 50 μL assay medium per well (DMEM/F12, 0.3% FBS, 2 mM L-Glutamine, 100 U/mL Penicillin—100 μg/mL Streptomycin). Example compounds were serially diluted in DMSO, spotted into intermediate plates and prediluted with assay medium containing 3.3 μM Tunicamycin to give an 11-fold excess of final assay concentration. In addition to the example compound testing area, the plates also contained multiples of control wells for assay normalization purposes, wells containing Tunicamycin but no example compounds (High control), as well as wells containing neither example compound nor Tunicamycin (Low control). The assay was started by transferring 5 μL from the intermediate plate into the assay plates, followed by incubation for 6 h at 37° C., 5% CO2. Subsequently, cells were fixed (4% PFA in PBS, 20 min at r.t.) and submitted to indirect ATF4 immunofluorescence staining (primary antibody rabbit anti ATF4, clone D4B8, Cell Signaling Technologies; secondary antibody Alexa Fluor 488 goat anti-rabbit IgG (H+L), Thermofisher Scientific). Nuclei were stained using Hoechst dye (Thermofisher Scientific), and plates were imaged on an Opera Phenix High Content imaging platform equipped with 405 nm and 488 nm excitation. Finally, images were analyzed using script based algorithms. The main readout HEK-ATF4 monitored the ATF4 signal ratio between nucleus and cytoplasm. Tunicamycin induced an increase in the overall ATF4 ratio signal, which was prevented by ISR modulating example compounds. In addition, HEK-CellCount readout was derived from counting the number of stained nuclei corresponding to healthy cells. This readout served as an internal toxicity control.
Consider `O=C(N[C@H]1CC[C@H](c2nnc(-c3ccc(Cl)cc3)o2)NC1)c1cnc2cc(Cl)ccc2c1` [Example 46, 7-chloro-N-[(3S,6R)-6-[5-(4-chlorophenyl)-1,3,4-oxadiazol-2-yl]-3-piperidyl]quinoline-3-carboxamide], for which the IC50 lay in the range of 1 to 500 nM.
For `O=C(N[C@H]1CC[C@H](c2nnc(OC/C=C/C(F)(F)F)o2)NC1)c1cnc2cc(Cl)ccc2c1` [Example 48, 7-chloro-N-[(3S,6R)-6-[5-[(E)-4,4,4-trifluorobut-2-enoxy]-1,3,4-oxadiazol-2-yl]-3-piperidyl]quinoline-3-carboxamide], the IC50 was in the range of 1 to 500 nM.
Then `O=C(N[C@@H]1CC[C@@H](c2nnc(OCCOC(F)(F)F)o2)NC1)c1cnc2cc(Cl)ccc2c1` [Example 49, 7-chloro-N-[(3R,6S)-6-[5-[2-(trifluoromethoxy)ethoxy]-1,3,4-oxadiazol-2-yl]-3-piperidyl]quinoline-3-carboxamide], with 1 to 500 nM; and `O=C(N[C@H]1CC[C@H](c2nnc([C@H]3C[C@@H](OC(F)(F)F)C3)o2)NC1)c1cnc2cc(Cl)ccc2c1` [Example 51, 7-chloro-N-[(3S,6R)-6-{5-[(1s,3s)-3-(trifluoromethoxy)cyclobutyl]-1,3,4-oxadiazol-2-yl}piperidin-3-yl]quinoline-3-carboxamide], with 1 to 500 nM; and `O=C(N[C@@H]1CC[C@@H](c2nnc([C@H]3C[C@@H](OC(F)(F)F)C3)o2)NC1)c1cnc2cc(Cl)ccc2c1` [Example 52, 7-chloro-N-[(3R,6S)-6-{5-[(1s,3s)-3-(trifluoromethoxy)cyclobutyl]-1,3,4-oxadiazol-2-yl}piperidin-3-yl]quinoline-3-carboxamide], with 1 to 500 nM.
To `O=C(N[C@@H]1CC[C@@H](c2nnc(OCCOC(F)(F)F)o2)NC1)c1ccc(Cl)c(Cl)c1` [Example 54, 3,4-dichloro-N-[(3R,6S)-6-[5-[2-(trifluoromethoxy)ethoxy]-1,3,4-oxadiazol-2-yl]-3-piperidyl]benzamide] belongs 500 to 2000 nM.
Then `O=C(N[C@H]1CO[C@H](c2nnc(OCCOC(F)(F)F)o2)OC1)c1cnc2cc(Cl)ccc2c1` [Example 55, 7-chloro-N-[trans-2-{5-[2-(trifluoromethoxy)ethoxy]-1,3,4-oxadiazol-2-yl}-1,3-dioxan-5-yl]quinoline-3-carboxamide], with 1 to 500 nM.

The values above are taken from US20230391763A1, “MODULATORS OF THE INTEGRATED STRESS RESPONSE PATHWAY” (Evotec International GmbH, priority 2020, published 2023).
